In patent US8178496B2, “Photoreactive regulator of glutamate receptor function and methods of use thereof” (The Regents of the University of California, priority 2007, dated 2012):
“Also recorded” adds a separate entry of the source.

Experiments:
iGluR = assay: Rates of light-driven channel activation and deactivation (whole-cell patch clamp); format: cell-based; settings: mean±s.e.m., n=3
Protocol: (§1) Patch clamp recordings were carried out using an Axopatch 200A amplifier in the whole cell mode. HEK cells were voltage clamped at −60 mV and hippocampal neurons were current clamped at −65 mV. Pipettes had resistances 2-6 MΩ. For experiments in HEK cells, pipettes were filled with a solution containing (in mM): 145 CsCl, 5 EGTA, 0.5 CaCl2, 1.0 MgCl2 and 10 HEPES at pH7.2 (CsOH). The extracellular solution contained (in mM): 135 NaCl, 5.4 KCl, 0.9 MgCl2, 1.8 CaCl2, and 10 HEPES at pH 7.6 (NaOH). Cells were preincubated for 10 min in control solution containing 300 mg/l Concanavalin A type VI (Sigma) in order to block desensitization. For experiments in hippocampal neurons, pipettes were filled with a solution containing (in mM): 10 NaCl, 1 EGTA, 135 K-gluconate, 2.0 MgCl2, 10 HEPES and 2 Mg-ATP at pH7.4 (KOH). The extracellular solution contained (in mM): 138 NaCl, 1.5 KCl, 1.2 MgCl2, 2.5 CaCl2, 10 glucose and 10 HEPES at pH 7.3 (NaOH). […] Illumination was applied using a TILL Photonics Polychrome V monochromator through a 40×/0.60 W objective (power output: 4.8 mW/mm^2 at 500 nm and 1.8 mW/mm^2 at 380 nm, as measured with a Newport optical power meter). Data was recorded with pClamp software, which was also used to automatically control the monochromator by means of sequencing keys. […]

[1] = tested on: cultured rat hippocampal neurons; assay: Whole-cell current clamp recording of cultured hippocampal neurons; format: cell-based
Protocol: as §1

iGluR2(Q)flip-L483Y = assay: Whole-cell voltage clamp recording in HEK293 cells expressing iGluR2; format: cell-based
Protocol: (§2) HEK293 cells were plated at approximately 3×10^6 cells/ml on poly-L-lysine-coated glass coverslips (Deutsche Spiegelglas, Carolina Biological) and maintained in DMEM with 5% newborn calf serum, 0.2 mg/ml streptomycin, and 200 U/ml penicillin at 37° C. Cells were transiently transfected with various plasmids using lipofectamine 2000 (Invitrogen). The amount of total transfected ionotropic glutamate receptor-2 (iGluR2), iGluR5, and iGluR6 DNA and enhanced yellow fluorescent protein (EYFP) fusion DNA per 0.5 mL well was fixed at 0.7 μg and 0.3 μg, respectively. All recordings were carried out 24 to 48 h after transfection.
Patch clamp recordings were carried out using an Axopatch 200A amplifier in the whole cell mode. HEK cells were voltage clamped at −60 mV and hippocampal neurons were current clamped at −65 mV. Pipettes had resistances 2-6 MΩ. For experiments in HEK cells, pipettes were filled with a solution containing (in mM): 145 CsCl, 5 EGTA, 0.5 CaCl2, 1.0 MgCl2 and 10 HEPES at pH7.2 (CsOH). […] Illumination was applied using a TILL Photonics Polychrome V monochromator through a 40×/0.60 W objective (power output: 4.8 mW/mm^2 at 500 nm and 1.8 mW/mm^2 at 380 nm, as measured with a Newport optical power meter). Data was recorded with pClamp software, which was also used to automatically control the monochromator by means of sequencing keys. […]

[2] = Photostationary state determination by NMR with in situ irradiation; format: physicochemical; settings: D2O, mean±s.e.m., n=3
Protocol: Cis/trans photoisomerization of 2 was studied by ^1H NMR, with in situ irradiation of the sample using a Polychrome V system monochromator (TILL Photonics) containing a 150 W Xenon short arc lamp with an output range of 320-680 nm. The half-power bandwidth was 14 nm. A 500 μl aliquot of a 100 mM sample in D2O was prepared in a screw-capped 528-TR-7 NMR tube (Wilmad). A FT-600-UMT fiber optic cable (NA 0.39) (Thorlabs) was coupled at one end to the monochromator using a custom fitting and the other end inserted into the NMR tube a few millimeters above the solution. Each sample was irradiated at the desired wavelength for 30 minutes to reach the photostationary state and 480 scans were required to obtain reasonable signal-to-noise ratios. The output from the fiber optic cable between 340-480 nm ranged from 0.3-9.0 μW/cm^2. Data were processed by isolating aromatic cis-trans ^1H signals and summing their integrals to 1.0. All data were obtained in triplicate and averaged.

wild-type iGluR6(Q) = molecular target: T1, wild-type iGluR6(Q) (Homo sapiens, UniProt Q13002); assay: Whole-cell voltage clamp recording in HEK293 cells expressing iGluR6(Q); format: cell-based
T1 construct: expressed in transfected cells; host or cells: HEK293
T1 sequence (Q13002 32-908): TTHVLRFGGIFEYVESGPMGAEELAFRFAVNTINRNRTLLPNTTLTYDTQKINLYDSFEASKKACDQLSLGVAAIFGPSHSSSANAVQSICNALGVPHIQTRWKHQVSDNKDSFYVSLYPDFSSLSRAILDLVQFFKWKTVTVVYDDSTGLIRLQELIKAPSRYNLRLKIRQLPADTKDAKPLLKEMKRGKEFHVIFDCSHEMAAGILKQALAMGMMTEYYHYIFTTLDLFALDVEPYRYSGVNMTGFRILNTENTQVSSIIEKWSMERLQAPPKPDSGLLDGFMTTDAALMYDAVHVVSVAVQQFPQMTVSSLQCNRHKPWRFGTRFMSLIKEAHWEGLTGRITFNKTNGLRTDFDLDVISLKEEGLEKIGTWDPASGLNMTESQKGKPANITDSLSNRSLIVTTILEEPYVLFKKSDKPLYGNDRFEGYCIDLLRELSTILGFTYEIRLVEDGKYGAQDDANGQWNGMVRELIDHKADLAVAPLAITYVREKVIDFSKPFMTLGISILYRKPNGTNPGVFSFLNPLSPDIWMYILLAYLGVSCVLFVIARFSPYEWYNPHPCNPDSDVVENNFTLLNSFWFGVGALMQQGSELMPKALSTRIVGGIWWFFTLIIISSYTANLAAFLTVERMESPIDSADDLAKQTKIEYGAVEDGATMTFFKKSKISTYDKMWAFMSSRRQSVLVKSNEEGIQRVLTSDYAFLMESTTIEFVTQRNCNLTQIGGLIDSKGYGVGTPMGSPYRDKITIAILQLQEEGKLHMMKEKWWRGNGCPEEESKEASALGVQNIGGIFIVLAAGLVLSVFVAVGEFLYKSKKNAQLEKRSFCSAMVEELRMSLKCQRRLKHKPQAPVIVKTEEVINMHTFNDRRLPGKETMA
Protocol: as §2
(§3) Patch clamp recordings were carried out using an Axopatch 200A amplifier in the whole cell mode. HEK cells were voltage clamped at −60 mV and hippocampal neurons were current clamped at −65 mV. Pipettes had resistances 2-6 MΩ. For experiments in HEK cells, pipettes were filled with a solution containing (in mM): 145 CsCl, 5 EGTA, 0.5 CaCl2, 1.0 MgCl2 and 10 HEPES at pH7.2 (CsOH). The extracellular solution contained (in mM): 135 NaCl, 5.4 KCl, 0.9 MgCl2, 1.8 CaCl2, and 10 HEPES at pH 7.6 (NaOH). Cells were preincubated for 10 min in control solution containing 300 mg/l Concanavalin A type VI (Sigma) in order to block desensitization. For experiments in hippocampal neurons, pipettes were filled with a solution containing (in mM): 10 NaCl, 1 EGTA, 135 K-gluconate, 2.0 MgCl2, 10 HEPES and 2 Mg-ATP at pH7.4 (KOH). The extracellular solution contained (in mM): 138 NaCl, 1.5 KCl, 1.2 MgCl2, 2.5 CaCl2, 10 glucose and 10 HEPES at pH 7.3 (NaOH). L-Glutamate, DNQX, and compound 2 were applied as reported in text and figures with complete exchange of the bath solution occurring in less than 10 sec. Compound 2 was not pre-irradiated prior to perfusion, but the bath and coverslip were continuously under illumination as denoted in traces. Following complete exchange of the bath, perfusion of 2 was stopped prior to switching illumination wavelengths. Illumination was applied using a TILL Photonics Polychrome V monochromator through a 40×/0.60 W objective (power output: 4.8 mW/mm^2 at 500 nm and 1.8 mW/mm^2 at 380 nm, as measured with a Newport optical power meter). Data was recorded with pClamp software, which was also used to automatically control the monochromator by means of sequencing keys. The results are representative data from multiple cells in at least three independent cultures.

iGluR5(Q) = molecular target: T2, iGluR5(Q) (Homo sapiens, UniProt P39086); assay: Whole-cell voltage clamp dose-response in HEK293 cells expressing iGluR5(Q); format: cell-based
T2 construct: expressed in transfected cells; host or cells: HEK293
T2 sequence (P39086 31-918): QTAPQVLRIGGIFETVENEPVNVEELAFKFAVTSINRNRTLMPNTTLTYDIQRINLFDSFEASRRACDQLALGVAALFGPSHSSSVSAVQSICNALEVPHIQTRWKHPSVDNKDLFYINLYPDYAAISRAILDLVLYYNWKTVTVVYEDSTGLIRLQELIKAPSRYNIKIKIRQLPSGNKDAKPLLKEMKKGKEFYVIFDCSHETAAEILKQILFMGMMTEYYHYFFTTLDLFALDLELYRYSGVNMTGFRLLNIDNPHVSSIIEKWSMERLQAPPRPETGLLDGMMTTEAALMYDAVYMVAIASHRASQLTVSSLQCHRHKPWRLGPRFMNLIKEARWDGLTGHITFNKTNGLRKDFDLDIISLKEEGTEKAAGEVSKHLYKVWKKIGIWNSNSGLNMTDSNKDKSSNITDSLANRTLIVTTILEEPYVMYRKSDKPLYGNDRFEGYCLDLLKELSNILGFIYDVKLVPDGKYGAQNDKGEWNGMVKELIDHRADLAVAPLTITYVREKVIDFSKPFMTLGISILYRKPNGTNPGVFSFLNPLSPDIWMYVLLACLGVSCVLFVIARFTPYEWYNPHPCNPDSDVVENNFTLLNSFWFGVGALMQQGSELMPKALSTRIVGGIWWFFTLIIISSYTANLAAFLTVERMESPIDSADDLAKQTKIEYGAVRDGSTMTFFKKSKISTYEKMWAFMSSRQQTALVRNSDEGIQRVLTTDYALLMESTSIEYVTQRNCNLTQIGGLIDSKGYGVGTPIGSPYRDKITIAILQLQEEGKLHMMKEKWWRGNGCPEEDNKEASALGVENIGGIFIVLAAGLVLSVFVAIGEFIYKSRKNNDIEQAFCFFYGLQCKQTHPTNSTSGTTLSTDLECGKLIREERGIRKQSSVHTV
Protocol: as §2, §3

## N[C@@H](CC(C/C=C/c1ccc(/N=N/c2ccccc2)cc1)C(=O)O)C(=O)O (stereo partly shown) [Compound 2]
iGluR; 380 nm, 1.8 mW/mm^2
  rate of deactivation τoff-380nm: 250 ± 14 ms
iGluR; 500 nm, 4.8 mW/mm^2
  rate of activation τon-500nm: 310 ± 15 ms
[1]; 25 μM, current clamped at −65 mV, no ConA, switching between 380 and 500 nm
  light-controlled action potential firing: sufficient to trigger, and extinguish, sustained trains of action potentials
iGluR2(Q)flip-L483Y; 250 μM, 380 and 500 nm illumination
  inward currents in the presence of 250 μM 2: failed to produce inward currents; also recorded: no effect in either the trans- (500 nm) or cis-state (380 nm)
[2]; 380 nm irradiation
  photostationary state content of cis-2: 76.3±0.3%
[2]; 500 nm irradiation
  photostationary state content of trans-2: 89±1%
wild-type iGluR6(Q); 25 μM
  extent of iGluR6 channel activation: only activated to a small extent
wild-type iGluR6(Q); HEK293, ConA 0.3 mg/mL pretreated, trans- versus cis-state
  channel activation (inward currents) depending on wavelength of irradiation: increased inward currents in the trans-relative to the cis-state
iGluR5(Q); dose-response curves under 380 and 500 nm light
  efficacy with respect to a 300 μM glutamate evoked response: approximately half-maximal efficacy
iGluR5(Q); dose-response curves, iGluR5(Q) versus iGluR6(Q)
  selectivity at iGluR5 over iGluR6 receptors: high selectivity
iGluR5(Q); under 380 nm light
  reduction of apparent agonist affinity (EC50) relative to 500 nm: ~10 fold
iGluR5(Q); under 500 nm illumination, read-out: apparent agonist affinity (EC50)
  EC50: 9 µM

## O=C1N=c2cc([N+](=O)[O-])c([N+](=O)[O-])cc2=NC1=O [DNQX, 6,7-dinitroquinoxaline-2,3-dione, reference compound]
[1]; 10 μM DNQX together with 25 μM 2, 380 and 500 nm illumination
  block of light activation with 2: Pharmacological block of light activation
wild-type iGluR6(Q); 10 μM DNQX together with 50 μM 2, 380 and 500 nm illumination
  block of light activation with 2: Pharmacological block of light activation
wild-type iGluR6(Q); HEK293 expressing iGluR6(Q)
  block of the activity of 2: competitively blocked

## N[C@@H](CCC(=O)O)C(=O)O [Glu, reference compound]
iGluR2(Q)flip-L483Y; 300 μM
  inward current evoked by 300 μM Glu: evokes a large inward current
